# EP1790337A2, “Methods and compounds for treating depression and other disorders” (priority 1998, dated 2000)
# Where a name gives a salt, the structure may show the parent alone.
# Experiments:
# [1] = test system: NMDA receptor; test: NMDA assay: fura-2 measurement of cytosolic calcium in cultured rat cerebellar granule cells; assay type: cell-based
# Method: All culture media, antibiotics, and enzymes, with the exception of fetal calf serum (Hyclone Laboratories, Logan, UT), were purchased from Sigma Chemical Co., St. Louis, MO. Fura-2/AM was obtained from Molecular Probes, Eugene, OR, and was prepared freshly in dimethylsulfoxide (DMSO) before use. Ionomycin (Calbiochem) was stored as a stock solution in DMSO. Nifedipine (Sigma) and nimodipine (RBI) were dissolved in absolute ethanol. […] All other agents were dissolved in phosphate-buffered saline (PBS), and adjusted to pH 7.4
# Briefly, primary cultures of cerebellar granule neurons were obtained from 8-day-old rats and plated onto squares of Aclar plastic coated with poly-L-lyaine. The plastic squares were placed in 12-well culture plates, and ~7.5 x 10^5 cells were added to each well. […] No changes of culture medium were made until the cells were used for fluorescence recording 6-8 days after plating.
# The cells were then rinsed with the same buffer, lacking fura-2/AM, and maintained at room temperature until used for measurement of fluorescence, the Aclar squares were transferred into quartz cuvettes containing 2 ml of the HEPES buffer. […] Fluorescence was measured using excitation and emission wavelengths of 340 and 510 nm, respectively.
# [2] = biological target: norepinephrine transporter site (Rattus norvegicus, UniProt Q63380); test: Norepinephrine reuptake inhibition assay ([3H]nisoxetine binding, forebrain membranes); details: read-out: NE Uptake, mean % inhibition
# Method: (§1) Monoamine transporter binding assays (reuptake inhibition assays) were performed by NovaScreen using standard radioligand binding assays. The transporter binding assays are described briefly below:
# (§2) Reactions were terminated by rapid vacuum filtration onto glass fiber filters.
# [3] = biological target: dopamine transporter site (Cavia porcellus, UniProt H0WCX4); test: Dopamine reuptake inhibition assay ([3H]WIN 35428 binding, striatal membranes); parameters: species or system Guinea pig; details: read-out: DA Uptake, mean % inhibition; for inhibition at 0.1 µM: @ 100 nM (top number); for inhibition at 10 µM: @ 10.0 µM (bottom number)
# Method: as §1, §2
# [4] = biological target: NMDA receptor; test: [3H]MK-801 binding assay, synaptic plasma membranes from rat cortex; details: read-out: [^3H]MK-801 data IC50
# Method: Synaptic plasma membranes (SPMs) from rat cortex were prepared as follows. […] The cortices from 25 rats were thawed and pooled. […] The extensive washing procedure utilized in this assay was designed to minimize the concentrations of glutamate and glycine (co-agonists at the NMDA receptor-ionophore complex) present in the membrane preparation.
# On the day of assay, aliquots of SPM were thawed and resuspended in 75 vols of 5 mM K-EDTA, pH 7.0.
# The SPM pellet was resuspended in assay buffer (30 mM EPPS, 1 mM K-EDTA, pH 7.0) by polytron. […] Binding was started by the addition of the tissue homogenate. The assay was terminated by the addition of 4 ml ice-cold buffer, followed by filtration over glass-fiber filters (Schleicher & Schuell No. 30) on a Millipore 12-well filtration manifold. […] Radioactivity on the filters was measured using Fisherbrand Scinti-Safe scintillation cocktail. Samples were shaken for 45-60 min on a shaker platform to solubilize the radioactivity. Counting for ^3H was performed in a Beckman 6000IC LS Scintillation Counter for 4 min per sample.
# Sequence of norepinephrine transporter site (Q63380 1-617): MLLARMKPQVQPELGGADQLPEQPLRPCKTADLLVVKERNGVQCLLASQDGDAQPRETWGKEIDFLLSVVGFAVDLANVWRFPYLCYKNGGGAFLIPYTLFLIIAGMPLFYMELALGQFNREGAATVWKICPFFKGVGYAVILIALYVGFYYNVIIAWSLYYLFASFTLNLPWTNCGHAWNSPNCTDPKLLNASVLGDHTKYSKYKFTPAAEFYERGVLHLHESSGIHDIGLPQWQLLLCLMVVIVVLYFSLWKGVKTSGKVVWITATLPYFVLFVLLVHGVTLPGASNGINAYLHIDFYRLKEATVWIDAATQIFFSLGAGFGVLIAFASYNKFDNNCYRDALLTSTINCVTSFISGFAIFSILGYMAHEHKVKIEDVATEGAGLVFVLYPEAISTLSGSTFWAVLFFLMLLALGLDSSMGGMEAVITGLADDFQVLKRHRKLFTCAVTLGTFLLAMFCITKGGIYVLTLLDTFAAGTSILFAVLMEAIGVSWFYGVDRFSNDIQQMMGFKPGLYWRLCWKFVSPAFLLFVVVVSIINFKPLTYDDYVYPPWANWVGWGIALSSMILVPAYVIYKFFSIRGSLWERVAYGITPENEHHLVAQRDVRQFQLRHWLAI
# Sequence of dopamine transporter site (H0WCX4 1-619): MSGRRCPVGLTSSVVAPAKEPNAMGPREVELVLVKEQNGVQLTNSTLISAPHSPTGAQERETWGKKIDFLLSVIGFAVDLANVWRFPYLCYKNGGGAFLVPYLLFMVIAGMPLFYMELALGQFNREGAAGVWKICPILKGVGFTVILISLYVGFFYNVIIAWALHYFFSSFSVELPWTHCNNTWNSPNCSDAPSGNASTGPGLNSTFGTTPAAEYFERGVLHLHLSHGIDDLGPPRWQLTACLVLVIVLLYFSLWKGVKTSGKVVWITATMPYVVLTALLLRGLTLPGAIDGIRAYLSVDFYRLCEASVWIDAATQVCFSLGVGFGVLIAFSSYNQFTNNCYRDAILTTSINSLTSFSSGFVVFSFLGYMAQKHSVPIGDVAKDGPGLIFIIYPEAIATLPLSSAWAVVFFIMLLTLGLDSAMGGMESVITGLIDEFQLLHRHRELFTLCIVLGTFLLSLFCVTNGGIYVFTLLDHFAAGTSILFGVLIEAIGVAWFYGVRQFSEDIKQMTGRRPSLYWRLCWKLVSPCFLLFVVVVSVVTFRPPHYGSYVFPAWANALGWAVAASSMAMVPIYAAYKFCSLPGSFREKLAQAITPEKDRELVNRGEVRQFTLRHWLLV
Structure (SMILES),"IC50 ([1]; read-out: fura2 data IC50, fura-2 [Ca2+]i) [nM]",inhibition at 0.1 µM [2] [%],inhibition at 10 µM [2] [%],inhibition at 0.1 µM [3] [%],inhibition at 10 µM [3] [%],IC50 [4] [nM],"IC50 ([1]; fura-2 [Ca2+]i, read-out: fura2 data IC50) [nM]"
"NCCC(Oc1cccc(F)c1)c1cccc(F)c1 (stereo not drawn) [Compound 119, 3-(3-Fluorophenoxy)-3-(3-fluorophenyl)-1-propylamine]",115,8.9,19.4,1.9,58.3,87,
"NCCC1c2ccccc2CCc2ccccc21 [Compound 156, 5-(2-Aminoethyl)-5H-10, 11-dihydrodibenzo [a,d] cycloheptene hydrochloride]",,,,,,,69
CNCCC(Oc1ccc(C(F)(F)F)cc1)c1ccccc1 (stereo not drawn) [Fluoxetine],,,,,78,,
"Fc1ccc([C@@H]2CCNC[C@H]2COc2ccc3c(c2)OCO3)cc1 [Paroxetine, reference compound]",,< 20,50,< 20,97,,
